According to ChEMBL document CHEMBL4814010 (Bioorg Med Chem Lett, 2021):
Converted amounts (≈) assume the structure as drawn.

Experiments:
[1] = Corrector activity of Z variant alpha1-antitrypsin misfolding (unknown origin) assessed as inhibition of Z variant alpha1-antitrypsin polymerisation by TR-FRET assay; parameters: species or system Homo sapiens
[2] = Corrector activity of Z variant alpha1-antitrypsin misfolding (unknown origin) expressed in CHO cells assessed as inhibition of Z variant alpha1-antitrypsin polymerisation; assay type: cell-based, Homo sapiens
[3] = Lipophilicity, log D of compound by chromatographic method; assay type: physicochemical
[4] = Kinetic solubility of compound; assay type: physicochemical; settings: read-out: Kinetic_solubility
[5] = Metabolic stability in human hepatocytes assessed as intrinsic clearance measured per gm of tissue; assay type: ADME, cell-based, Hepatocyte
[6] = Binding affinity to Z variant alpha1-antitrypsin (unknown origin) by competition binding assay; parameters: species or system Homo sapiens
[7] = Corrector activity of Z variant alpha1-antitrypsin misfolding (unknown origin) expressed in CHO cells assessed as inhibition of Z variant alpha1-antitrypsin polymerisation by measuring increase in Z alpha1 antitrypsin secretion; assay type: cell-based
Albumin = Albumin (Homo sapiens, UniProt P02768); assay: Binding affinity to human serum albumin; assay type: ADME; settings: isolated protein
[8] = Protein binding in human plasma; assay type: ADME, cell-free; settings: read-out: PPB
[9] = Protein binding in human blood; assay type: ADME, tissue-based; settings: read-out: PB
[10] = Protein binding in rat plasma; assay type: ADME, cell-free; settings: read-out: PPB (converted)
[11] = Clearance in rat hepatocytes measured per gm of tissue; assay type: ADME, cell-based, Hepatocyte
[12] = Clearance in Wistar Han rat blood at 1 mg/kg, iv; assay type: ADME, organism-based
[13] = Volume of distribution in Wistar Han rat at 1 mg/kg, iv; assay type: ADME, organism-based; settings: in vivo
[14] = Elimination half life in Wistar Han rat at 1 mg/kg, iv; assay type: ADME, organism-based; settings: in vivo, read-out: beta t1/2 (converted)

Albumin, sequence (P02768 whole entry): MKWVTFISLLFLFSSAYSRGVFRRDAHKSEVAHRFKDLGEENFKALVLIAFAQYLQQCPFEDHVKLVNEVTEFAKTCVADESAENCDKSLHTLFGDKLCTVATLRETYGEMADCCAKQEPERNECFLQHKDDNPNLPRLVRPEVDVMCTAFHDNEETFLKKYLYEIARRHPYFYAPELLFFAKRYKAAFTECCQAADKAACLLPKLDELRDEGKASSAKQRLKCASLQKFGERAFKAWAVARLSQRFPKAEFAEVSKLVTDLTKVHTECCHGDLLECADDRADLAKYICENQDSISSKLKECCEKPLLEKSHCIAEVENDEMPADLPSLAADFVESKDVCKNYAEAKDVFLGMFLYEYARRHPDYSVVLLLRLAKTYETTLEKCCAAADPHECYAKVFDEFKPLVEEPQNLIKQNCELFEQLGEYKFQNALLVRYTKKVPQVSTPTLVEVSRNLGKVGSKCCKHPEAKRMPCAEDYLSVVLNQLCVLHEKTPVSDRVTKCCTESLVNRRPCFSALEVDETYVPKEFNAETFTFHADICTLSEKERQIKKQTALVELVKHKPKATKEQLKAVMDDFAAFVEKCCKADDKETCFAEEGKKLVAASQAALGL

Row | SMILES | pIC50 [1] | pIC50 [2] | chromatographic logD [3] | solubility kinetic [4] | CLH [5] | further results
1 | CCC[C@@H](NC(=O)c1cncc2[nH]c(=O)[nH]c12)[C@@H](O)c1cccc(Cl)c1C | 7.4 | 4.2 | 3.4 | ≥ 227 µM |  | 
2 | CCC[C@@H](NC(=O)c1cccc2c1CC(=O)N2)[C@@H](O)c1ccccc1Cl | 8.1 | 5.7 | 3.6 | ≥ 356 µM | 0.4 mL/min/g | 
3 | CCC[C@@H](NC(=O)c1cccc2c1CC(=O)N2)[C@@H](O)c1ccccc1C(F)(F)F | 7.3 | 4.9 | 3.7 | ≥ 420 µM | 0.2 mL/min/g | 
4 | CCC[C@@H](NC(=O)c1cccc2c1CC(=O)N2)[C@@H](O)c1ccccc1CC | 8.3 | 6 | 4.1 | ≥ 316 µM | 1.6 mL/min/g | 
5 | CCC[C@@H](NC(=O)c1cccc2[nH]c(=O)ccc12)[C@@H](O)c1cccc(Cl)c1C | 7.7 | 4.8 | 3.7 | 309 µM (≈ 123 µg/mL) |  | 
6 | CCC[C@@H](NC(=O)c1cccc2c1CC(=O)N2)[C@@H](O)c1ncccc1C | 6.6 | 4.4 | 3.2 | ≥ 392 µM |  | 
7 | CCC[C@@H](NC(=O)c1cccc2c1CC(=O)N2)[C@@H](O)c1cccc(Cl)c1C | 8.6 | 6.7 | 4.3 | ≥ 450 µM | 0.4 mL/min/g | 
8 | CCC[C@@H](NC(=O)c1ccnc2[nH]c(=O)[nH]c12)[C@@H](O)c1cccc(Cl)c1C | 8 | 5.5 | 3.9 | 200 µM (≈ 77.8 µg/mL) |  | 
9 | CCC[C@@H](NC(=O)c1ccnc2c1CC(=O)N2)[C@@H](O)c1cccc(Cl)c1C | 8.1 | 5.9 | 3.9 | ≥ 314 µM | 0.9 mL/min/g | 
10 | CCC[C@@H](NC(=O)c1cccc2c1CC(=O)N2)[C@@H](O)c1cc(Cl)ccc1C | 8.6 | 5.3 | 4.3 | ≥ 408 µM |  | 
11 | CCC[C@@H](NC(=O)c1cccc2c1CC(=O)N2)[C@@H](O)c1ccncc1C | 6.5 | < 4 | 1.6 | 300 µM (≈ 106 µg/mL) |  | 
12 | CCC[C@@H](NC(=O)c1cccc2c1CC(=O)N2)[C@@H](O)c1cnccc1C | 5.9 | < 4 | 1.9 | ≥ 346 µM |  | 
13 | CCC[C@@H](NC(=O)c1cccc2[nH]c(=O)oc12)[C@@H](O)c1cccc(Cl)c1C | 8 | 5.4 | 5.1 | 326 µM (≈ 127 µg/mL) |  | 
14 | CCC[C@@H](NC(=O)c1cccc2oc(=O)[nH]c12)[C@@H](O)c1cccc(Cl)c1C | 8.2 | 5.1 | 5.2 | 233 µM (≈ 90.6 µg/mL) |  | 
15 | CCC[C@@H](NC(=O)c1cccc2c1CC(=O)N2)[C@@H](O)c1cccc(F)c1C | 8.3 | 6.3 | 3.8 | ≥ 528 µM | 0.3 mL/min/g | pKd [6]: 8.5; EC50 [7]: 631 nM; Activity (Albumin): 84%; fraction unbound [8]: < 0.02; fraction unbound [9]: < 0.02; fraction unbound [10]: 0.19; CLH [11]: 7.4 mL/min/g; clearance [12]: 69 mL/min/kg; Vd [13]: 2.3 L/kg; half-life [14]: 30 min
16 | CCC[C@@H](NC(=O)c1cccc2c1CC(=O)N2)[C@@H](O)c1cccc(F)c1Cl | 8.2 | 6.2 | 3.7 | ≥ 504 µM | < 0.4 mL/min/g | 
17 | CCC[C@@H](NC(=O)c1cccc2c1CC(=O)N2)[C@@H](O)c1ccccc1OC | 7.8 | 5.1 | 3.4 | ≥ 299 µM | < 0.8 mL/min/g | 
18 | CCC[C@@H](NC(=O)c1cccc2c1NC(=O)C2)[C@@H](O)c1cccc(Cl)c1C | 8.6 | 6.3 | 5.2 | 128 µM (≈ 49.5 µg/mL) | 3.7 mL/min/g | 
19 | CCC[C@@H](NC(=O)c1cccc2[nH]c(=O)[nH]c12)[C@@H](O)c1cccc(Cl)c1C | 8.5 | 6.5 | 4.4 | 307 µM (≈ 119 µg/mL) | 1.8 mL/min/g | 

The next lines start with results.

Row | pIC50 [1] | pIC50 [2] | chromatographic logD [3] | solubility kinetic [4] | CLH [5] | SMILES | further results
20 | 6.5 | 4.5 | 4.3 | ≥ 439 µM |  | CCC[C@@H](NC(=O)c1ccc2cc[nH]c2c1)[C@@H](O)c1ccccc1 | 
21 | 8.4 | 6 | 3.7 | 52 µM (≈ 19.4 µg/mL) |  | CCC[C@@H](NC(=O)c1cccc2c1CC(=O)N2)[C@@H](O)c1cccc(Cl)c1 | 
22 | 5.5 |  |  |  |  | CCC[C@@H](NC(=O)c1ccc2cc[nH]c2c1)[C@H](O)c1ccccc1 | 
23 | 8.1 | 5.7 | 3.6 | 19 µM (≈ 6.7 µg/mL) |  | CCC[C@@H](NC(=O)c1cccc2c1CC(=O)N2)[C@@H](O)c1cccc(C)c1 | 
24 | 4.1 |  |  |  |  | CCC[C@H](NC(=O)c1ccc2cc[nH]c2c1)[C@@H](O)c1ccccc1 | 
25 | 6.9 | 4.3 | 3.9 | ≥ 420 µM |  | CCC[C@@H](NC(=O)c1ccc2oc(=O)[nH]c2c1)[C@@H](O)c1ccccc1C | 
26 | < 4 |  |  |  |  | CCC[C@H](NC(=O)c1ccc2cc[nH]c2c1)[C@H](O)c1ccccc1 | 
27 | 6.5 |  |  |  |  | CCCC(NC(=O)c1ccc2cc[nH]c2c1)C(O)c1ccccc1 (stereo unspecified) | IC50 [1]: 300 nM
28 | 8.3 | 5.6 | 3.4 | ≥ 395 µM | 0.3 mL/min/g | CCC[C@@H](NC(=O)c1cccc2c1CC(=O)N2)[C@@H](O)c1ccccc1C | 
29 | 6.3 | < 4 | 3.2 | 299 µM (≈ 102 µg/mL) |  | CCC[C@@H](NC(=O)c1ccc2oc(=O)[nH]c2c1)[C@@H](O)c1ccccc1 | 
